According to patent US10052331B2, “3-(3H-imidazo[4,5-C]pyridin-2-yl)-1H-pyrazolo[3,4-C]pyridine and therapeutic uses thereof” (Samumed, LLC, priority 2014, dated 2018):

test system: Wnt activity (Wnt-responsive Sp5 promoter-luciferase reporter in SW480 cells); test: Wnt activity screening assay: Sp5-Luc reporter gene in SW480 colon carcinoma cells; assay type: cell-based; details: Homo sapiens
Excerpt: The screening assay for Wnt activity is described as follows. Reporter cell lines can be generated by stably transducing cancer cell lines (e.g., colon cancer) or primary cells (e.g., IEC-6 intestinal cells) with a lentiviral construct that includes a Wnt-responsive promoter driving expression of the firefly luciferase gene.
SW480 colon carcinoma cells were transduced with a lentiviral vector expressing luciferase with a human Sp5 promoter consisting of a sequence of eight TCF/LEF binding sites. SW480 cells stably expressing the Sp5-Luc reporter gene and a hygromycin resistance gene were selected by treatment with 150 μg/ml of hygromycin for 7 days. These stably transduced SW480 cells were expanded in cell culture and used for all further screening activities. For Sp5-Luc reporter gene assays, the cells were plated at 10,000 cells/well in 96-well plates with growth medium containing 10% fetal calf serum and incubated overnight at 37° C. and 5% CO2. Each compound was dissolved in DMSO as a 10 mM stock in standard j-vials and used to prepare compound source plates in dose-response format with 3-fold serial dilutions and a 10 mM top concentration. Compound transfer from serially diluted source plates to assay plates containing the cells was accomplished using a pintool (Multimek 96, Beckman equipped with V&P Scientific FP1S50H pins) based liquid handling protocol. This protocol used a slotted pin to transfer 50 nl of compound from a source plate well to an assay plate well containing 50 μl of cells in growth medium. […] Control wells received 50 nl of DMSO treatment for normalization and calculating IC50 values. The treated cells were incubated at 37° C. and 5% CO2 for an additional forty-two hours. Following incubation, the growth medium was removed and 50 μl of BrightGlo luminescence reagent (Promega) was added to each well of the 96-well assay plates. The plates were placed on an orbital shaker for 5 min and then luminescence was quantified on the Victor3 (Perkin Elmer) plate reader. Readings were normalized to DMSO only treated cells, and normalized activities were utilized for IC50 calculations using the dose-response log (inhibitor) vs. response-variable slope (four parameters) nonlinear regression feature available in GraphPad Prism 5.0 or 6.0.

Compared with CCC(=O)Nc1cncc(-c2cc3c(-c4nc5c(-c6cccc(F)c6)cncc5[nH]4)n[nH]c3cn2)c1 [Compound 1, N-(5-(3-(7-(3-Fluorophenyl)-3H-imidazo[4,5-c]pyridin-2-yl)-1H-pyrazolo[3,4-c]pyridin-5-yl)pyridin-3-yl)propionamide], CCCC(=O)Nc1cncc(-c2cc3c(-c4nc5c(-c6cccc(F)c6)cncc5[nH]4)n[nH]c3cn2)c1 [Compound 17, N-(5-(3-(7-(3-Fluorophenyl)-3H-imidazo[4,5-c]pyridin-2-yl)-1H-pyrazolo[3,4-c]pyridin-5-yl)pyridin-3-yl)butyramide] is 3.6-fold lower in IC50: 61 nM for the first, 17 nM for the second. The second is the more potent here.

CC(C)CC(=O)Nc1cncc(-c2cc3c(-c4nc5c(-c6cccc(F)c6)cncc5[nH]4)n[nH]c3cn2)c1 [Compound 2, N-(5-(3-(7-(3-Fluorophenyl)-3H-imidazo[4,5-c]pyridin-2-yl)-1H-pyrazolo[3,4-c]pyridin-5-yl)pyridin-3-yl)-3-methylbutanamide] and CC(C)CC(=O)Nc1cncc(-c2cc3c(-c4nc5c(-c6ccc(F)cc6)cncc5[nH]4)n[nH]c3cn2)c1 [Compound 28, N-(5-(3-(7-(4-Fluorophenyl)-3H-imidazo[4,5-c]pyridin-2-yl)-1H-pyrazolo[3,4-c]pyridin-5-yl)pyridin-3-yl)-3-methylbutanamide] are within 1.5-fold of each other in IC50: 120 nM for the first, 170 nM for the second.

First: O=C(Nc1cncc(-c2cc3c(-c4nc5c(-c6cccc(F)c6)cncc5[nH]4)n[nH]c3cn2)c1)C1CC1 [Compound 19, N-(5-(3-(7-(3-Fluorophenyl)-3H-imidazo[4,5-c]pyridin-2-yl)-1H-pyrazolo[3,4-c]pyridin-5-yl)pyridin-3-yl)cyclopropanecarboxamide]
Second: O=C(Nc1cncc(-c2cc3c(-c4nc5c(-c6ccc(F)cc6)cncc5[nH]4)n[nH]c3cn2)c1)C1CCC1 [Compound 46, N-(5-(3-(7-(4-Fluorophenyl)-3H-imidazo[4,5-c]pyridin-2-yl)-1H-pyrazolo[3,4-c]pyridin-5-yl)pyridin-3-yl)cyclobutanecarboxamide]
The IC50 of the first is 7.6-fold lower: 21.6 nM for the first, 165 nM for the second.

CC(C)(C)C(=O)Nc1cncc(-c2cc3c(-c4nc5c(-c6ccc(F)cc6)cncc5[nH]4)n[nH]c3cn2)c1 [Compound 34, N-(5-(3-(7-(4-Fluorophenyl)-3H-imidazo[4,5-c]pyridin-2-yl)-1H-pyrazolo[3,4-c]pyridin-5-yl)pyridin-3-yl)pivalamide] and CC(C)(C)CC(=O)Nc1cncc(-c2cc3c(-c4nc5c(-c6ccccc6F)cncc5[nH]4)n[nH]c3cn2)c1 [Compound 68, N-(5-(3-(7-(2-Fluorophenyl)-3H-imidazo[4,5-c]pyridin-2-yl)-1H-pyrazolo[3,4-c]pyridin-5-yl)pyridin-3-yl)-3,3-dimethylbutanamide] are within 1.5-fold of each other in IC50: 174 nM for the first, 167 nM for the second.

CC(C)C(=O)Nc1cncc(-c2cc3c(-c4nc5c(-c6ccccc6F)cncc5[nH]4)n[nH]c3cn2)c1 [Compound 61, N-(5-(3-(7-(2-Fluorophenyl)-3H-imidazo[4,5-c]pyridin-2-yl)-1H-pyrazolo[3,4-c]pyridin-5-yl)pyridin-3-yl)isobutyramide] and CCCCC(=O)Nc1cncc(-c2cc3c(-c4nc5c(-c6ccccc6F)cncc5[nH]4)n[nH]c3cn2)c1 [Compound 70, N-(5-(3-(7-(2-Fluorophenyl)-3H-imidazo[4,5-c]pyridin-2-yl)-1H-pyrazolo[3,4-c]pyridin-5-yl)pyridin-3-yl)pentanamide] are within 1.5-fold of each other in IC50: 123 nM for the first, 127 nM for the second.

Compared with CC(C)C(=O)Nc1cncc(-c2cc3c(-c4nc5c(-c6cccnc6)cncc5[nH]4)n[nH]c3cn2)c1 [Compound 87, N-(5-(3-(7-(Pyridin-3-yl)-3H-imidazo[4,5-c]pyridin-2-yl)-1H-pyrazolo[3,4-c]pyridin-5-yl)pyridin-3-yl)isobutyramide], CC(C)Nc1cncc(-c2cc3c(-c4nc5c(-c6cccnc6)cncc5[nH]4)n[nH]c3cn2)c1 [Compound 90, N-Isopropyl-5-(3-(7-(pyridin-3-yl)-3H-imidazo[4,5-c]pyridin-2-yl)-1H-pyrazolo[3,4-c]pyridin-5-yl)pyridin-3-amine] is lower in IC50: over 10000 nM for the first, 93.5 nM for the second.

CCCCC(=O)Nc1cncc(-c2cc3c(-c4nc5c(-c6ccoc6)cncc5[nH]4)n[nH]c3cn2)c1 [Compound 278, N-(5-(3-(7-(Furan-3-yl)-3H-imidazo[4,5-c]pyridin-2-yl)-1H-pyrazolo[3,4-c]pyridin-5-yl)pyridin-3-yl)pentanamide] and CC(C)CC(=O)Nc1cncc(-c2cc3c(-c4nc5c(-c6cccs6)cncc5[nH]4)n[nH]c3cn2)c1 [Compound 288, 3-Methyl-N-(5-(3-(7-(thiophen-2-yl)-3H-imidazo[4,5-c]pyridin-2-yl)-1H-pyrazolo[3,4-c]pyridin-5-yl)pyridin-3-yl)butanamide] are within 1.5-fold of each other in IC50: 115 nM for the first, 79 nM for the second.

Going from Fc1cccc(-c2cncc3[nH]c(-c4n[nH]c5cnc(-c6cn[nH]c6)cc45)nc23)c1 [Compound 887, 3-(7-(3-Fluorophenyl)-3H-imidazo[4,5-c]pyridin-2-yl)-5-(1H-pyrazol-4-yl)-1H-pyrazolo[3,4-c]pyridine] to Fc1cccc(-c2cncc3[nH]c(-c4n[nH]c5cnc(-c6cnccn6)cc45)nc23)c1 [Compound 902, 3-(7-(3-Fluorophenyl)-3H-imidazo[4,5-c]pyridin-2-yl)-5-(pyrazin-2-yl)-1H-pyrazolo[3,4-c]pyridine], the IC50 rises from 6 nM to 50 nM (8.3-fold). The first is the more potent here.

First: Fc1cccc(-c2cncc3[nH]c(-c4n[nH]c5cnc(-c6cncc(OC7CCCCC7)c6)cc45)nc23)c1 [Compound 891, 5-(5-(Cyclohexyloxy)pyridin-3-yl)-3-(7-(3-fluorophenyl)-3H-imidazo[4,5-c]pyridin-2-yl)-1H-pyrazolo[3,4-c]pyridine]
Second: Fc1cccc(-c2cncc3[nH]c(-c4n[nH]c5cnc(-c6cncc(OC7CCNCC7)c6)cc45)nc23)c1 [Compound 892, 3-(7-(3-Fluorophenyl)-3H-imidazo[4,5-c]pyridin-2-yl)-5-(5-(piperidin-4-yloxy)pyridin-3-yl)-1H-pyrazolo[3,4-c]pyridine]
The IC50 of the first is lower: 735 nM for the first, over 10000 nM for the second.

First: Fc1cccc(-c2cncc3[nH]c(-c4n[nH]c5cnc(-c6cncc(OCCN7CCCC7)c6)cc45)nc23)c1 [Compound 894, 3-(7-(3-Fluorophenyl)-3H-imidazo[4,5-c]pyridin-2-yl)-5-(5-(2-(pyrrolidin-1-yl)ethoxy)pyridin-3-yl)-1H-pyrazolo[3,4-c]pyridine]
Second: Fc1cccc(-c2cncc3[nH]c(-c4n[nH]c5cnc(-c6cncc(OCc7ccccc7)c6)cc45)nc23)c1 [Compound 898, 5-(5-(Benzyloxy)pyridin-3-yl)-3-(7-(3-fluorophenyl)-3H-imidazo[4,5-c]pyridin-2-yl)-1H-pyrazolo[3,4-c]pyridine]
The IC50 of the first is higher: over 10000 nM for the first, 520 nM for the second.

Going from O=C(CC1CCCCC1)Nc1cncc(-c2cc3c(-c4nc5c(-c6cccc(F)c6)cncc5[nH]4)n[nH]c3cn2)c1 [Compound 899, 2-Cyclohexyl-N-(5-(3-(7-(3-fluorophenyl)-3H-imidazo[4,5-c]pyridin-2-yl)-1H-pyrazolo[3,4-c]pyridin-5-yl)pyridin-3-yl)acetamide] to CC(C)CC(=O)Nc1cncc(-c2cc3c(-c4nc5c(-c6cc(F)cc(OCCN(C)C)c6)cncc5[nH]4)n[nH]c3cn2)c1 [Compound 1192, N-(5-(3-(7-(3-(2-(Dimethylamino)ethoxy)-5-fluorophenyl)-3H-imidazo[4,5-c]pyridin-2-yl)-1H-pyrazolo[3,4-c]pyridin-5-yl)pyridin-3-yl)-3-methylbutanamide], the IC50 rises from 1740 nM to over 10000 nM. The first is the more potent here.
